Where “and” joins values, the source holds several entries; their conditions need not be identical. Identical values can stand only once. Inconclusive results and toxic doses are left out. Numbered stars: 1 amine (or outer) side, 2 acyl side, 3 side chain; on linkers, the order of the positions; unused ones are H or OH. Bridge positions count the residues as written; N and C are the ends. Square brackets hold non-standard residues; d marks the D form. Peptide text beside a SMILES is read from it. I, II: the chains in the order shown. Actinocin(9to1) = Cc1c2oc3c(C)ccc(C(=O)[*:1])c3nc-2c(C(=O)[*:2])c(N)c1=O; NMeV = CN[CH](C(=O)O)C(C)C; Pip = O=C(O)[CH]1CCCCN1; Sar = CNCC(=O)O
System: BDF1 mice, B16 melanoma ip, median survival T/C
Assay: NCI In Vivo Anticancer Drug Screen. Data for tumor model B16 Melanoma (intraperitoneal) in B6D2F1 (BDF1) mice
Details: endpoint: median survival time, higher = longer survival
Procedure, shortened: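 Transplantable tumor model; survival or tumor size measured; reported as T/C, treated over vehicle control.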

[1] = dose: 400.0 mg/kg/injection, schedule: Q01DX009 (ip), vehicle: Klucel (hydroxypropylcellulose) (HPC)
[2] = dose: 200.0 mg/kg/injection, schedule: Q01DX009 (ip), vehicle: saline with Tween-80
[3] = dose: 400.0 mg/kg/injection, schedule: Q01DX009 (ip), vehicle: saline with Tween-80
[4] = dose: 100.0 mg/kg/injection, schedule: Q04DX003 (ip), vehicle: Klucel (hydroxypropylcellulose) (HPC)
[5] = dose: 400.0 mg/kg/injection, schedule: Q04DX003 (ip), vehicle: Klucel (hydroxypropylcellulose) (HPC)
[6] = dose: 100.0 mg/kg/injection, schedule: Q01DX009 (ip), vehicle: saline
[7] = dose: 200.0 mg/kg/injection, schedule: Q01DX009 (ip), vehicle: saline
[8] = dose: 100.0 mg/kg/injection, schedule: Q01DX009 (ip), vehicle: saline with Tween-80
[9] = dose: 6.25 mg/kg/injection, schedule: Q01DX009 (ip), vehicle: Klucel (hydroxypropylcellulose) (HPC)
[10] = dose: 12.5 mg/kg/injection, schedule: Q01DX009 (ip), vehicle: Klucel (hydroxypropylcellulose) (HPC)
[11] = dose: 25.0 mg/kg/injection, schedule: Q01DX009 (ip), vehicle: Klucel (hydroxypropylcellulose) (HPC)
[12] = dose: 50.0 mg/kg/injection, schedule: Q01DX009 (ip), vehicle: Klucel (hydroxypropylcellulose) (HPC)
[13] = dose: 100.0 mg/kg/injection, schedule: Q01DX009 (ip), vehicle: Klucel (hydroxypropylcellulose) (HPC)
[14] = dose: 200.0 mg/kg/injection, schedule: Q01DX009 (ip), vehicle: Klucel (hydroxypropylcellulose) (HPC)
[15] = dose: 25.0 mg/kg/injection, schedule: Q04DX003 (ip), vehicle: Klucel (hydroxypropylcellulose) (HPC)

O=C=Nc1ccc(Cc2ccc(N=C=O)cc2)cc1
T/C [1]: 123 % of control

CC(C)C(Br)C(=O)NCC(=O)NCC(=O)O (stereo unspecified)
T/C [2]: 91 % of control
T/C [3]: 87 % of control

CCOC(=O)Nc1cccc2ccccc12
T/C [4]: 102 % of control
T/C (dose: 200.0 mg/kg/injection, schedule: Q04DX003 (ip), vehicle: Klucel (hydroxypropylcellulose) (HPC)): 105 % of control
T/C [5]: 102 % of control

CC(N)C(=O)NC(CC(=O)O)C(=O)O (stereo unspecified)
T/C (dose: 12.5 mg/kg/injection, schedule: Q01DX009 (ip), vehicle: saline): 99 % of control
T/C (dose: 25.0 mg/kg/injection, schedule: Q01DX009 (ip), vehicle: saline): 93 % of control
T/C (dose: 50.0 mg/kg/injection, schedule: Q01DX009 (ip), vehicle: saline): 98 % of control
T/C [6]: 93 % of control
T/C [7]: 98 % of control

Nc1ccn(C2OC(COP(=O)(O)O)C(O)C2O)c(=O)n1 (stereo unspecified)
T/C (dose: 16.0 mg/kg/injection, schedule: Q01DX009 (ip), vehicle: saline with Tween-80): 105 % of control
T/C (dose: 32.0 mg/kg/injection, schedule: Q01DX009 (ip), vehicle: saline with Tween-80): 105 % of control
T/C (dose: 64.0 mg/kg/injection, schedule: Q01DX009 (ip), vehicle: saline with Tween-80): 115 % of control
T/C (dose: 128.0 mg/kg/injection, schedule: Q01DX009 (ip), vehicle: saline with Tween-80): 122 % of control

CCCCCCCCCCCCCCCCCS(=O)S(=O)O (stereo unspecified)
T/C [8]: 113 % of control
T/C [2]: 97 % of control
T/C [3]: 95 % of control

O=C1C(Cl)=C(c2ccccc2)C(=O)C(Cl)=C1c1ccccc1
T/C [9]: 114 % of control
T/C [10]: 106 % of control
T/C [11]: 87 % of control
T/C [12]: 94 % of control

CC(C)C(O)(C(=O)NN)C(=O)NN
T/C (dose: 50.0 mg/kg/injection, schedule: Q04DX003 (ip), vehicle: saline): 91 % of control
T/C (dose: 100.0 mg/kg/injection, schedule: Q04DX003 (ip), vehicle: saline): 96 % of control
T/C (dose: 200.0 mg/kg/injection, schedule: Q04DX003 (ip), vehicle: saline): 117 % of control

COc1ccc(N=C(N)NC#N)cc1
T/C [13]: 105 % of control
T/C [14]: 99 % of control

Cc1ccc(N2C(=O)CC(Sc3ccccc3N)C2=O)cc1 (stereo unspecified)
T/C [11]: 97 % of control
T/C [12]: 91 % of control
T/C [13]: 86 % of control and 91 % of control

c1ccc(CSc2ncnc3nc[nH]c23)cc1
T/C [11]: 95 % of control
T/C [15]: 95 % of control
T/C (dose: 50.0 mg/kg/injection, schedule: Q04DX003 (ip), vehicle: Klucel (hydroxypropylcellulose) (HPC)): 100 % of control
T/C [4]: 97 % of control

O=C(CCCN1CCC(n2c(=O)[nH]c3ccccc32)CC1)c1ccc(F)cc1
T/C (dose: 0.78 mg/kg/injection, schedule: Q01DX009 (ip), vehicle: Klucel (hydroxypropylcellulose) (HPC)): 121 % of control
T/C (dose: 3.12 mg/kg/injection, schedule: Q01DX009 (ip), vehicle: Klucel (hydroxypropylcellulose) (HPC)): 86 % of control
T/C [9]: 92 % of control
T/C [10]: 89 % of control
T/C [11]: 89 % of control and 94 % of control

C[n+]1cccc(NC(=O)c2ccc(NC(=O)c3ccc(C(=O)Nc4ccc(NC(=N)N)cc4)cc3)cc2)c1
T/C (dose: 0.9 mg/kg/injection, schedule: Q01DX009 (ip), vehicle: saline): 102 % of control
T/C (dose: 1.3 mg/kg/injection, schedule: Q01DX009 (ip), vehicle: saline): 94 % of control
T/C (dose: 2.0 mg/kg/injection, schedule: Q01DX009 (ip), vehicle: saline): 116 % of control

CCCCCCCCCCCCCCCCCCNC(=O)Nc1ccc(C(C)C)cc1
T/C [15]: 86 % of control
T/C [4]: 86 % of control and 89 % of control

C1=CC2C=CC12 (stereo unspecified)
T/C (dose: 50.0 mg/kg/injection, schedule: Q04DX003 (ip), vehicle: saline with Tween-80): 91 % of control
T/C (dose: 100.0 mg/kg/injection, schedule: Q04DX003 (ip), vehicle: saline with Tween-80): 89 % of control

Cc1c2oc3c(C)ccc(C(=O)NC4C(=O)NC(C(C)C)C(=O)N5CCCCC5C(=O)N(C)CC(=O)N(C)C(C(C)C)C(=O)OC4C)c3nc-2c(C(=O)NC2C(=O)NC(C(C)C)C(=O)N3CCCCC3C(=O)N(C)CC(=O)N(C)C(C(C)C)C(=O)OC2C)c(N)c1=O (stereo unspecified) (I: TV[Pip][Sar][NMeV] / II: TV[Pip][Sar][NMeV]; ester I:1-I:C, II:1-II:C; linker I:N-II:N via Actinocin(9to1); configuration not given here)
T/C (dose: 0.25 mg/kg/injection, schedule: Q01DX009 (ip), vehicle: saline + alcohol): 120 % of control
T/C (dose: 0.5 mg/kg/injection, schedule: Q01DX009 (ip), vehicle: saline + alcohol): 123 % of control
T/C (dose: 0.75 mg/kg/injection, schedule: Q04DX003 (ip), vehicle: saline + alcohol): 99 % of control and 116 % of control
T/C (dose: 1.5 mg/kg/injection, schedule: Q04DX003 (ip), vehicle: saline + alcohol): 111 % of control and 116 % of control
T/C (dose: 2.0 mg/kg/injection, schedule: Q01DX009 (ip), vehicle: saline + alcohol): 157 % of control
T/C (dose: 6.0 mg/kg/injection, schedule: Q04DX003 (ip), vehicle: saline + alcohol): 155 % of control

O=C(O)c1cc2ccccc2o1
T/C (dose: 16.5 mg/kg/injection, schedule: Q01DX009 (ip), vehicle: saline with Tween-80): 100 % of control
T/C (dose: 25.0 mg/kg/injection, schedule: Q01DX009 (ip), vehicle: saline with Tween-80): 100 % of control
T/C (dose: 37.5 mg/kg/injection, schedule: Q01DX009 (ip), vehicle: saline with Tween-80): 92 % of control
T/C (dose: 50.0 mg/kg/injection, schedule: Q01DX009 (ip), vehicle: saline with Tween-80): 111 % of control
T/C [8]: 102 % of control

COc1ccc(C2CCC(=O)CC2C(=O)O)cc1 (stereo unspecified)
T/C [4]: 94 % of control
T/C [5]: 100 % of control

C=C(C)C(=O)Nc1c(C)cccc1C
T/C [12]: 102 % of control
T/C [13]: 107 % of control
T/C [14]: 108 % of control

COc1cccc2c1C(=O)c1c(O)c3c(c(O)c1C2=O)C[C@@](O)(/C(CO)=N/NC(=O)c1ccc(Cl)c(Cl)c1)C[C@@H]3OC1CC(NC(=S)Nc2ccc(F)cc2)C(O)C(C)O1 (stereo partly specified)
T/C (dose: 0.4 mg/kg/injection, schedule: Q01DX009 (ip), vehicle: water): 101 % of control
T/C (dose: 0.8 mg/kg/injection, schedule: Q01DX009 (ip), vehicle: water): 112 % of control
T/C (dose: 1.6 mg/kg/injection, schedule: Q01DX009 (ip), vehicle: water): 111 % of control
T/C (dose: 3.2 mg/kg/injection, schedule: Q01DX009 (ip), vehicle: water): 106 % of control

Clc1nnc(Cl)c(Cl)c1Cl
T/C (dose: 0.05 mg/kg/injection, schedule: Q01DX009 (ip), vehicle: saline with Tween-80): 109 % of control
T/C (dose: 0.05 mg/kg/injection, schedule: Q04DX003 (ip), vehicle: saline): 102 % of control
T/C (dose: 0.1 mg/kg/injection, schedule: Q01DX009 (ip), vehicle: saline with Tween-80): 100 % of control
T/C (dose: 0.1 mg/kg/injection, schedule: Q04DX003 (ip), vehicle: saline): 91 % of control
T/C (dose: 0.2 mg/kg/injection, schedule: Q01DX009 (ip), vehicle: saline with Tween-80): 100 % of control
T/C (dose: 0.2 mg/kg/injection, schedule: Q04DX003 (ip), vehicle: saline): 89 % of control

CCC(CC)(COS(=O)(=O)c1ccc(C)cc1)COS(=O)(=O)c1ccc(C)cc1
T/C [13]: 100 % of control
T/C [14]: 93 % of control
T/C [1]: 93 % of control

CC1=CC(=O)C(O)C2(C)C1CC(O)C13COC4(C)C(OC(=O)C41)C(O)C23 (stereo unspecified)
T/C (dose: 1.0 mg/kg/injection, schedule: Q01DX009 (ip), vehicle: saline with Tween-80): 97 % of control
T/C (dose: 2.0 mg/kg/injection, schedule: Q01DX009 (ip), vehicle: saline with Tween-80): 101 % of control
T/C (dose: 4.0 mg/kg/injection, schedule: Q01DX009 (ip), vehicle: saline with Tween-80): 97 % of control

N#CCc1ccccc1S(=O)(=O)O
T/C [6]: 103 % of control
T/C [7]: 104 % of control
T/C (dose: 400.0 mg/kg/injection, schedule: Q01DX009 (ip), vehicle: saline): 104 % of control

Source: PubChem BioAssay AID192 (DTP/NCI, 2004)
